The target of series [1] is T1, ACVR2B (Homo sapiens, UniProt Q13705).
T1 construct: purchased DiscoverX
Kind of series: KINOMEscan kinase competition binding assay (DiscoverX). The following applies: absence of ATP, three-point titration. An excerpt:
Data are presented as Geomean ± SD.

Series [2] concerns the target TGFβRII (Homo sapiens, UniProt P37173). In words: Confirmatory TGFβRII binding assay.
Series [3] has as its system TGFβ ligand (SMAD2/3-responsive promoter). In words: Cell based luciferase reporter assay (SMAD2/3), TGFβ-stimulated HEK293_SMAD2/3 cells. The following applies: Homo sapiens; TGFβ1 2 nM stimulated HEK293_SMAD2/3. On the technique in general: A reporter such as luciferase makes a cellular process visible.
For series [4], the system named is BMP ligand (SMAD1/5/8-responsive promoter). In words: Cell based luciferase reporter assay (SMAD1/5/8), BMP4-stimulated HEK293_SMAD1/5/8 cells. The settings on record: Homo sapiens; BMP4 20 nM stimulated HEK293_SMAD1/5/8.
The subject of series [5] is TGFβ-responsive p3TP-Lux reporter in Mv1Lu cells. In words: Mink lung epithelial cell p3TP-Lux reporter assay. The series is classed as cell-based. The settings on record: TGFβ1-mediated luciferase production, read-out: IC50 (SE), Mv1Lu p3TP-Lux. Here is the method: The TGFβ-responsive p3TP-Lux reporter construct was stably expressed in Mv1Lu mink lung epithelial cells. […] Media was replaced with 0.5% FBS/DMEM and incubated at 37C/5% CO2 for 2 hours. […] The following day, cells were washed with PBS and lysed with lysis buffer by incubating for 20 to 30 minutes at room temperature. Counts were taken on the MicroBeta JET by injecting 50 μL Luciferase Assay Reagent II (PROMEGA), delay for 1 second and count for 5 seconds. Curve fitting utilized a 4-parameter logistic model and absolute IC50 values were reported.

For series [6], the system named is murine NK and CD8+ T cells. Kind of series: TGFβ suppression of murine NK and CD8+ T cell cytokine secretion. The series is classed as cell-based, BALB/c mice. The following applies: TGFβ1 10 ng/ml, 0.1 μM to 10 μM, ELISA. Here is the method:
Mouse NK cells and CD8^+ T cells were purified from female BALB/C mouse splenocytes by magnetic antibody sorting (Miltenyi Biotec) following the manufacturer's instructions. After isolation, the cells were re-suspended separately in complete media (RPMI1640, 5% FBS, 10 mM HEPES, 1×NEAA, 1×L-Glu, sodium pyruvate, 1×Penn/Strep, 0.055 mM βME, 50 U/ml IL2) and plated in flat 96-well plates at 37°C for 5-7 days at a density of 5 × 10^4/well, in triplicate, and stimulated with Treg Suppression Inspector beads (Miltenyi Biotec, Cat# 130-093-627). Cells were cultured with or without TGFβ1 at 10 ng/ml. […] Cytokine release in supernatants was measured by ELISA (R&D, mouse Granzyme B: DY1865; mouse INFγ:3321-1H-6). One-way ANOVA with Dunnett's test was used to compare the TGFβ+Gal treatments to the TGFβ+DMSO treatment.

In series [7] the test system is human NK and CD8+ T cells. In words: TGFβ1 suppression of human NK and CD8+ T cell cytokine secretion. The series is classed as cell-based. The following applies: TGFβ1 10 ng/ml, ELISA. Here is the method:
Blood from healthy donors were obtained from the New York Blood Center. After isolation of PBMCs via high density gradient centrifugation with Ficoll-Paque, NK cells and CD8^+ T cells were purified from PBMCs by magnetic antibody sorting (Miltenyi Biotec) following the manufacturer's instructions. Purified CD8^+ T cells and NK cells were re-suspended separately in complete media (RPMI1640, 5% FBS, 10mM HEPES, 1×NEAA, 1×L-glu, sodium pyruvate, 1×penn/strep, 0.055 mM βME, 50 U/ml IL-2) and plated in 96-well plates at 37°C for 2 days at a density of 5 × 10^4/well, in triplicates. CD8^+ T cells were stimulated with human T cell activation/expansion beads (Miltenyi Biotec; 130-091-441), while NK cells were stimulated with the same beads plus 10 U/ml IL-2. Cells were cultured with or without TGFβ1 at 10 ng/ml. […] Cytokine release in supernatants was measured by ELISA (R&D; human Granzyme B: DY2906; human INFγ: DY285-05). One-way ANOVA with Dunnett's test was used to compare the TGFβ+Gal treatments to the TGFβ+DMSO treatment.
On the technique in general: In an ELISA, binding on a coated surface is turned into a signal by an enzyme label.

The test system of series [8] is Calu6 human xenograft lung cancer model. In words: Calu6 in vivo xenograft cancer model. Also on record: species or system athymic nude mice. Here is the method:
Female athymic nude mice from Charles River weighing 22 to 26 grams were implanted subcutaneously in the flank with 1×10^7 cells in a 1:1 (v/v) mixture in matrigel. […] Tumor volumes and body weight were determined by electronic caliper every 2 to 3 days. Repeat measures analysis was utilized with log transformed data and the auto-regression (AR) method to determine the overall p-value for galunisertib growth curves relative to the vehicle control in both tumor models. […]

The subject of series [9] is 4T1 syngenic murine breast cancer model. Kind of series: 4T1 in vivo syngenic breast cancer model. Also noted: species or system BALB/c mice. Here is the method:
Female BALB/c mice from Taconic Farms weighing 20 to 24 grams were acclimated for 1 week prior to study initiation, had ad libitum access to food and were shaved in the implant area prior to the orthotopic injection of 1 × 10^5 4T1 cells into the mammary fat pad in a volume of 20 μL media. Ten animals per group were utilized for tumor measurement and survival endpoints. […] Tumor volumes were determined by electronic caliper every 2 to 3 days. Statistical analysis was performed by repeated measures analysis and Kaplan-Meier analysis.

On the set-up of series [10]: method as in PMID 25424852. The following applies: patients with glioblastoma; cited from earlier work.
The conditions of series [11]: second line glioblastoma; cited from earlier work.
Series [12] can be described thus: in vivo. The following applies: female, BALB/c, mouse, plasma, po, 25 mg/kg.
Procedure: For in vivo measurement of tumor cell pSMAD activity, tumors were harvested from mice at the indicated time points post-treatment, snap frozen in liquid nitrogen, then pulverized in lysis buffer [EDTA 5 mM, EGTA 5 mM, sodium pyrophosphate 30 mM, sodium chloride 6.7 mM, sodium fluoride 50 mM, and 1% triton in water, pH 7.4 with protease and phosphatase inhibitors (Sigma, p8340, p5726, p0044) and sodium orthovanadate 2.5 mM]. Protein concentration was estimated with DC protein assay kit (BioRad).
Percent inhibition of normalized pSMAD2 levels was calculated by first determining the ratio of tSMAD to pSMAD values for the vehicle group. […] Percent inhibition for compound treated groups was determined relative to the minimum pSMAD inhibition of the vehicle group using the formula: [(100- (normalized pSMAD in the experimental treatment group/normalized pSMAD in the vehicle treated group)]. IC50 of pSMAD inhibition was calculated for the data using non-linear regression to fit the standard four parameter logistic model using GraphPad Prism 6.
Female athymic nu/nu mice or immune competent syngenic BALB/c mice (Charles River or Taconic Farms, respectively, 22 to 28 grams) were maintained in microisolator cages, received food and water ad libitum, and were quarantined for 1 week before experimental manipulation. Sub-confluent Calu6 human non-small cell lung cancer (NSCLC) cells were injected subcutaneously in the flank of nude mice (1x 10^7cells/per animal) in 0.2 mL of culture medium mixed with Matrigel (BD Biosciences, 1:1 v/v). EMT6-LM2 murine triple negative breast cancer tumor cells (5 × 10^5 cells/per animal in the absence of matrigel) were implanted on the flank of BALB/c mice. EMT6-LM2 cells were generated from parental EMT6 cells which were passaged twice from spontaneous lung metastases (LM) following subcutaneous growth. When the tumor volume reached ~250 mm^3, mice were randomized and separated into treatment groups.
Tumors and plasma were collected 2 hours post dosage for analysis of pSMAD and compound levels.
Tumors and plasma were collected at the indicated time points (0.5, 1, 1.5, 2, 4, 8, and 16 hours) for analysis of pSMAD and compound levels.
Percent target inhibition was calculated as described above then was modeled as a function of either dose or plasma concentration.
The conditions of series [13]: clinical; cited from earlier work.
For series [14], the system named is CEREP diversity panel, 65 targets. In words: CEREP diversity panel. The following applies: at 10 μM, duplicate; data not shown.
Series [15] has as its system pSMAD in 4T1-LP cells. Kind of series: TGFβ1-induced pSMAD inhibition in 4T1-LP cells (ELISA).
Procedure: (§1) Next, the samples were homogenized for 15 seconds using Bioruptor® UCD-200 by Diagenode at medium power.
(§2) Total and pSMAD2/3 levels were assessed independently on two separate ELISA plates. […] To the pSMAD ELISA plate, 100 μL per well of lysate (ranging from 0.04-0.1 mg total protein) was added to the appropriate wells. To the total SMAD ELISA plate, 10% of the total protein that was added to the pSMAD, was added to the appropriate wells (0.004-0.01 mg protein final). A standard curve was also added to both ELISA plates (p- and tSMAD plates) using recombinant HIS-pSMAD2 protein (Eli Lilly and Company). Plates were incubated overnight then washed four times with wash buffer. […] Following one hour of incubation, plates were washed and developed using 3, 3’, 5, 5’-tetramethylbenzidine substrate (TMB; Surmodics/BioFX #TMBW-0100-01) and absorbance (OD) was read at 450 nm on a plate reader.
(§3) Percent inhibition of normalized pSMAD2 levels was calculated by first determining the ratio of tSMAD to pSMAD values for the vehicle group. […]
For series [16], the system named is pSMAD in EMT6-LM2 cells. Kind of series: TGFβ1-induced pSMAD inhibition in EMT6-LM2 cells (ELISA).
Procedure: as §1, §2, §3
[17] abbreviates: 75 mg/kg twice daily, data not shown.

Several values for one entry are separate records, joined by “and”; a condition that tells them apart may be missing. Identical values can stand only once. Like-named read-outs stand apart in the source and are kept apart here. Bounds are passed on as bounds.

T1 sequence (Q13705 19-512): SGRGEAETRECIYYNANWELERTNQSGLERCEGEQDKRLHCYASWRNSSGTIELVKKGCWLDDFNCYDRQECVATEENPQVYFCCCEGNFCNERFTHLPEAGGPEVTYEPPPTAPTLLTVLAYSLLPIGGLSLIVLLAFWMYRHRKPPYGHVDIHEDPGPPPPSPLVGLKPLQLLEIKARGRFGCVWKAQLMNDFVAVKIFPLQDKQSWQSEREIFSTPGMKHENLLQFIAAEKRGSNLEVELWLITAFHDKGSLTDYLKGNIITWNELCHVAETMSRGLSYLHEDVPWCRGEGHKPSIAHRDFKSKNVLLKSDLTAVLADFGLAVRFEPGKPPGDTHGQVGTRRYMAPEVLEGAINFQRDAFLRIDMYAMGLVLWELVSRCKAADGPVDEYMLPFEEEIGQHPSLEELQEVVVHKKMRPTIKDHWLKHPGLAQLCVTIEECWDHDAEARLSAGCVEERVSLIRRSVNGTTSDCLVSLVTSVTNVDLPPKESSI
Sequence of TGFβRII (P37173 23-567): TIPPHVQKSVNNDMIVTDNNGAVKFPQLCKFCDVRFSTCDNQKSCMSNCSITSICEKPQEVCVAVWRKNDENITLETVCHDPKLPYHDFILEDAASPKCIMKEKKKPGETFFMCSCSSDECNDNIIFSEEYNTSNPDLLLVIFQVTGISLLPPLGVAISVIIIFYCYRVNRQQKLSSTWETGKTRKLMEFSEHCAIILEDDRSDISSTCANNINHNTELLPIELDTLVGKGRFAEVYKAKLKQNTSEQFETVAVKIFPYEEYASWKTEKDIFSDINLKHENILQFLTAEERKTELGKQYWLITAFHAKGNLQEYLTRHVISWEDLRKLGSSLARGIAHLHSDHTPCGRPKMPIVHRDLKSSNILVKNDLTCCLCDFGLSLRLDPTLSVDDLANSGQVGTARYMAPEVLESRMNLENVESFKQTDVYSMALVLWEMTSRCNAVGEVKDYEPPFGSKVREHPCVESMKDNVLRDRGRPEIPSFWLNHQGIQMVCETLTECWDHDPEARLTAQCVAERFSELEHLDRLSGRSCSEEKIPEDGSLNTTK

For `Cc1cccc(-c2nn3c(c2-c2ccnc4ccc(C(N)=O)cc24)CCC3)n1.O` [galunisertib, 4-[2-(6-methylpyridin-2-yl)-5,6-dihydro-4H-pyrrolo[1,2-b]pyrazol-3-yl]quinoline-6-carboxamide monohydrate], the IC50 is 690 nM and 694 nM in series [1]; 430 nM in series [2]; 221 nM in [3]; above 10000 nM in series [4]; 251 nM in [5] (Mv1Lu); 250 nM in series [5]. The IC50 in series [15] (Mus musculus, read-out: IC50, pSMAD activity, 4T1-LP, TGFβ1 10 ng/ml, ELISA) worked out at 1760 nM; in [15] (read-out: IC50, pSMAD activity, 4T1-LP, TGFβ1 10 ng/ml, ELISA), 1770 nM; in series [16] (Mus musculus, read-out: IC50, pSMAD activity, EMT6-LM2, TGFβ1 10 ng/ml, ELISA), 894 nM; in series [16] (read-out: IC50, pSMAD activity, EMT6-LM2, TGFβ1 10 ng/ml, ELISA), 890 nM. Further, the “TGFβ1 suppression of IFNγ and granzyme B secretion” value in [6] is “prevented the suppression of IFNγ and granzyme B secretion”; in [7], “prevented the suppression of IFNγ and granzyme B secretion”. The tumor growth delay is 8.3 ± 2.6 days in [8] (75 mg/kg twice daily oral gavage, 500 mm^3 crossing time, p = 0.034) and 13 ± 2.4 days in series [9] (75 mg/kg twice daily oral gavage, 500 mm^3 crossing time, p < 0.01). Besides, the body weight result in [8] (setting [17]) and in series [9] (setting [17]) was “No body weight loss” each time. In [9] (75 mg/kg twice daily, Kaplan-Meier, p = 0.01), this compound registered a survival advantage of 4.5 days. Moreover, the “clinical activity, phase I” value in [10] was “promising activity”. In addition, the “clinical outcome versus lomustine, phase II” value in [11] is on record as “failed to show improvement over lomustine”. Besides, the time of peak concentration (Tmax) (as a rule, the time at which the peak concentration occurs) in series [12] is 30 min. The “tolerability as oral cancer therapy” value in series [13] was “well-tolerated”. Moreover, the “inhibition against all 65 targets” value in series [14] is listed as below 25%.

The values above are taken from article PMC5805504 (Oncotarget, 2017).
